Test results: ChEMBL document CHEMBL1201862, “PubChem BioAssay data set” (2004)
The source made the active and inactive calls.

How the values were obtained:
[1] = target: Tyrosine-protein phosphatase non-receptor type 11 (Homo sapiens, UniProt Q06124); assay: SHP2 phosphatase inhibition, dose response, selectivity assay for STEP inhibitor project, biochemical (AID 602367); assay type: functional; details: read-out: IC50_Mean
[2] = target: Tyrosine-protein phosphatase non-receptor type 5 (Homo sapiens, UniProt P54829); assay: STEP phosphatase inhibitors, confirmation, biochemical, fluorescence intensity, uHTS hits (AID 602372); assay type: functional; details: read-out: IC50_Mean
[3] = target: Dual specificity protein phosphatase 3 (Homo sapiens, UniProt P51452); assay: VHR phosphatase inhibition, dose response, selectivity assay for STEP inhibitor project, biochemical (AID 602374); assay type: functional; details: read-out: IC50_Mean
[4] = target: Arf-GAP with SH3 domain, ANK repeat and PH domain-containing protein 1 (Homo sapiens, UniProt Q9ULH1); assay type: functional;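 also: biochemical fluorescence polarization dose–response screen measuring inhibition of ASAP1; ASAP1 GAP domain stimulating GTP hydrolysis by truncated human ARF1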
[5] = NIH-3T3 fibroblast cytotoxicity, dose response, cytotoxicity control, cell-based, fluorescence, Alamar Blue, secondary assay (AID 2327); assay type: functional;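 also: NIH-3T3 mouse fibroblasts cultured with fluconazole at 8 µg/mL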
[6] = target: T1, Leucine aminopeptidase (Plasmodium falciparum 3D7, UniProt Q8IL11); assay: P. falciparum M17LAP inhibitors, primary screen, biochemical, fluorogenic H-Leu-NHMec substrate, 1536-well (AID 1619); assay type: functional
T1 sequence (Q8IL11 whole entry): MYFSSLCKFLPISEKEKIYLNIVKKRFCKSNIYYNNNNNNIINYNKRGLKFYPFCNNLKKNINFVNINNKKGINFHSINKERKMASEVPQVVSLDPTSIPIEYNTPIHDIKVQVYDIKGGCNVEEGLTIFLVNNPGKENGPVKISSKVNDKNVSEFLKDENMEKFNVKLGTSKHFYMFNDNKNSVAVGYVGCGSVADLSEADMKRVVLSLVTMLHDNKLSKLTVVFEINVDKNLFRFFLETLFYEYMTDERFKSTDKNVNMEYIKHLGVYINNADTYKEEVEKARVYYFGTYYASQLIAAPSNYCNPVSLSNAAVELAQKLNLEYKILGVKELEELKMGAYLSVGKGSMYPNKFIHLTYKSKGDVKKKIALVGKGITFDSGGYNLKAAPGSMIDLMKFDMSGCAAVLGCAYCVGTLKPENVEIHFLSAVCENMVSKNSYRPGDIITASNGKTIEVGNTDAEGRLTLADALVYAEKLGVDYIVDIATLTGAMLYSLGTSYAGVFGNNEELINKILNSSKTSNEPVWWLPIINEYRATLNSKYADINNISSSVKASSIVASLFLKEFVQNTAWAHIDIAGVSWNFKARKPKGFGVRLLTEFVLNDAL

[7] = system: Streptococcus sp. 'group A'; assay: growth inhibition of control SK(-) GAS strain, dose response, counter-screen for streptokinase expression inhibitor project, luminescence, kanamycin, BacTiterGlo, confirmation (AID 1900); assay type: functional, organism-based
[8] = target: T2, Streptokinase A (Streptococcus pyogenes serotype M1, UniProt P10520); assay: S. pyogenes streptokinase expression inhibitors, potency, dose response, plasminogen activation absorbance, OD405 (AID 1914); assay type: functional, Streptococcus pyogenes M1 GAS;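 also: secreted streptokinase activity via plasminogen activation per viability signal from cell pellet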
T2 sequence (P10520 whole entry): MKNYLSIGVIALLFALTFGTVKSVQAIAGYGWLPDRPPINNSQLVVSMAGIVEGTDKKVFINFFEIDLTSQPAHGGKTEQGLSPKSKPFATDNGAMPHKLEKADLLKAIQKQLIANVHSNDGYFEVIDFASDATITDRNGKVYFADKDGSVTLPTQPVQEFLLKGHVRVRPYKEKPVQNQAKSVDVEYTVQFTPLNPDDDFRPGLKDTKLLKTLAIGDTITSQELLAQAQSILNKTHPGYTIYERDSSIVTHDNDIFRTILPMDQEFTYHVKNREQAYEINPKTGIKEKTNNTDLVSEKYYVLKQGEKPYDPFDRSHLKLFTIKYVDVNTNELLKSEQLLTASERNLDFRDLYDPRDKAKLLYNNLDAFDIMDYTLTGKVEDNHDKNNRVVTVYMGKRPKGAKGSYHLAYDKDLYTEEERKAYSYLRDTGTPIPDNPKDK

[9] = C. albicans growth with fluconazole, confirmation, fluorescence, retest (AID 2467); assay type: functional, cell-based
[10] = inhibitors of intracellular T. cruzi replication, confirmation, NIH3T3 host cells, beta-gal luminescence (AID 2044); assay type: functional, cell-based;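 also: intracellular parasites grown in NIH/3T3 mouse fibroblasts as host cells; luminescent beta-galactosidase reporter signal from transgenic T. cruzi replicating inside host cells; inhibitors lower the luminescence signal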
[11] = cytotoxicity toward NIH3T3 fibroblasts, dose response, counter-screen, cell-based, ATP luminescence, mouse fibroblasts (AID 2010); assay type: functional;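 also: cells exposed to compound for about 90 hours before reading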
[12] = system: Streptococcus; assay: Group A Streptococcus viability loss, dose response, counter-screen for streptokinase expression inhibitor project, luminescence, BacTiterGlo (AID 1915); assay type: functional, organism-based;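 also: potency for reduction of bacterial viability or growth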
[13] = target: Nonstructural protein 1 (Influenza A virus, UniProt Q194T2); assay type: functional, Influenza A virus (A/California/07/2009(H1N1))
[14] = target: Photoreceptor-specific nuclear receptor (Homo sapiens, UniProt Q9Y5X4); assay type: functional, cell-based;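 also: CHO-S cells with Gal4-NCOR and VP16-NR2E3 two-hybrid luciferase reporter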
[15] = HeLa cell cytotoxicity, dose response, cytotoxicity control for MgcRacGAP inhibitor project (AID 624300); assay type: functional
[16] = target: T3, Rac GTPase-activating protein 1 (Homo sapiens, UniProt Q9H0H5); assay: MgcRacGAP GTPase-activating activity inhibitors, confirmation, biochemical, ADP Hunter fluorescence, primary and confirmatory (AID 624330); assay type: functional
T3 sequence (Q9H0H5 whole entry): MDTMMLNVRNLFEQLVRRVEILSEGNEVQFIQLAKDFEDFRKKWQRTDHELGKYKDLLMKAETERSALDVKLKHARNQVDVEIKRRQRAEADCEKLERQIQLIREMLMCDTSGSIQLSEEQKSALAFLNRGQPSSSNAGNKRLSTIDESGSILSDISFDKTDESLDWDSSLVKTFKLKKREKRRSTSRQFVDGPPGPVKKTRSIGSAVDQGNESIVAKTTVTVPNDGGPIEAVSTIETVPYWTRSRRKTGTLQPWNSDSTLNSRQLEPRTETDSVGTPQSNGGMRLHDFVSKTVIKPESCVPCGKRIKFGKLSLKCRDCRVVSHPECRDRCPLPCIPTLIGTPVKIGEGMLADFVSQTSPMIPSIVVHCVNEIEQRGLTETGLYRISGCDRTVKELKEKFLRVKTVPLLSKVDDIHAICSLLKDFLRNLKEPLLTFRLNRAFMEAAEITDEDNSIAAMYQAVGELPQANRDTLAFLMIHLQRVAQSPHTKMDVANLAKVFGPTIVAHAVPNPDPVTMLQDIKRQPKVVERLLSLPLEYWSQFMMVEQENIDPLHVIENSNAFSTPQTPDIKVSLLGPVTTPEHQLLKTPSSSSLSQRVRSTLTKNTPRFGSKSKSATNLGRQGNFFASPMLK

[17] = cells
[18] = NIH/3T3 fibroblast cytotoxicity, dose response, cytotoxicity control for T. cruzi growth inhibitor project, cell-based, cherry-pick samples, set 2 (AID 651817); assay type: functional; details: NIH3T3

Chain of Nonstructural protein 1 (Q194T2 whole entry, the tested form may be a part): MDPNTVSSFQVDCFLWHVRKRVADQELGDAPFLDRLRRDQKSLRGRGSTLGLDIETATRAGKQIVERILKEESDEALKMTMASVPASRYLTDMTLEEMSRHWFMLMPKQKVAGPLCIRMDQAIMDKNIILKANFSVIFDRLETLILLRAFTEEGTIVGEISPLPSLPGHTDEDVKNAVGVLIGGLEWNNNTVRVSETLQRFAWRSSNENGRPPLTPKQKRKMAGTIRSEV
Chain of Arf-GAP with SH3 domain, ANK repeat and PH domain-containing protein 1 (Q9ULH1 whole entry, the tested form may be a part): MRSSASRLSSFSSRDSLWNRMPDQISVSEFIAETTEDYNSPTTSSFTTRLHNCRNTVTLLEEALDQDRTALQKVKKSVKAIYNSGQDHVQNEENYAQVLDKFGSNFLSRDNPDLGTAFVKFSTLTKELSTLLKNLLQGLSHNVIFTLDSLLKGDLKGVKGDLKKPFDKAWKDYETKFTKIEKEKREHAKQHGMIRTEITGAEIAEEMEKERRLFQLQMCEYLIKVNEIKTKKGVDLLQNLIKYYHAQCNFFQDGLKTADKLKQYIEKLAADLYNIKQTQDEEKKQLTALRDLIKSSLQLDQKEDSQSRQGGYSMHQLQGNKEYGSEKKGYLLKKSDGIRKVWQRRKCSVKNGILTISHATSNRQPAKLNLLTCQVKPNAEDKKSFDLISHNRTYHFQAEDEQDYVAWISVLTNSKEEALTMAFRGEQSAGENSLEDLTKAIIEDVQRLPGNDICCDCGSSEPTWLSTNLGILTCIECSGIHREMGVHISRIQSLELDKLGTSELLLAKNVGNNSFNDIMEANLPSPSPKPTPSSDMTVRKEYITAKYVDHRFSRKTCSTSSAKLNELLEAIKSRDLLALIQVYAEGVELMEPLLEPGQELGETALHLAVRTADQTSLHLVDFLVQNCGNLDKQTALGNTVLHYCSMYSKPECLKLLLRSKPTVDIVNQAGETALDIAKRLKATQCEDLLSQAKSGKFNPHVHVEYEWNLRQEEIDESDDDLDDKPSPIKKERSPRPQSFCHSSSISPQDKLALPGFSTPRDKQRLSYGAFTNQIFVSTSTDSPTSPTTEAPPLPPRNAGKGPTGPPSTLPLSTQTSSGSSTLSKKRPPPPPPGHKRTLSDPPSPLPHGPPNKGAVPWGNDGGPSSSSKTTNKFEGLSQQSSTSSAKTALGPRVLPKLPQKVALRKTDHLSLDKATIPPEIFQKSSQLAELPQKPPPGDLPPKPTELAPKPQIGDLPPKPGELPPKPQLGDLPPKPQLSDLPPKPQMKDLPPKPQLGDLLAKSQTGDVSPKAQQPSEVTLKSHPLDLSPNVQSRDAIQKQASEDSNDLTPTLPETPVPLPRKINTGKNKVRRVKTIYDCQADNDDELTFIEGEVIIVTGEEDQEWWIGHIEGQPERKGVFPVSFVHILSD
Chain of Photoreceptor-specific nuclear receptor (Q9Y5X4 whole entry, the tested form may be a part): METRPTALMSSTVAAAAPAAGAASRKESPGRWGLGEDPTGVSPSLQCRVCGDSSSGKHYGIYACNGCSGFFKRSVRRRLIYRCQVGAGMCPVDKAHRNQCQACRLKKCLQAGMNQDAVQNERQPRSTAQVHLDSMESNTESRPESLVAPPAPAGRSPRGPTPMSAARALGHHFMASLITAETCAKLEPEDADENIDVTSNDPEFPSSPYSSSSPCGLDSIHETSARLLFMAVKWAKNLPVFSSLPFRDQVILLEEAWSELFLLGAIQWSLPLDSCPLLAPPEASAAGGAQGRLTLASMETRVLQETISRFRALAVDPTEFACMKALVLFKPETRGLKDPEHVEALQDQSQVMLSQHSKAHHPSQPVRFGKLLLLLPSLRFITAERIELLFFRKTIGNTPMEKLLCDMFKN
Chain of Tyrosine-protein phosphatase non-receptor type 5 (P54829 whole entry): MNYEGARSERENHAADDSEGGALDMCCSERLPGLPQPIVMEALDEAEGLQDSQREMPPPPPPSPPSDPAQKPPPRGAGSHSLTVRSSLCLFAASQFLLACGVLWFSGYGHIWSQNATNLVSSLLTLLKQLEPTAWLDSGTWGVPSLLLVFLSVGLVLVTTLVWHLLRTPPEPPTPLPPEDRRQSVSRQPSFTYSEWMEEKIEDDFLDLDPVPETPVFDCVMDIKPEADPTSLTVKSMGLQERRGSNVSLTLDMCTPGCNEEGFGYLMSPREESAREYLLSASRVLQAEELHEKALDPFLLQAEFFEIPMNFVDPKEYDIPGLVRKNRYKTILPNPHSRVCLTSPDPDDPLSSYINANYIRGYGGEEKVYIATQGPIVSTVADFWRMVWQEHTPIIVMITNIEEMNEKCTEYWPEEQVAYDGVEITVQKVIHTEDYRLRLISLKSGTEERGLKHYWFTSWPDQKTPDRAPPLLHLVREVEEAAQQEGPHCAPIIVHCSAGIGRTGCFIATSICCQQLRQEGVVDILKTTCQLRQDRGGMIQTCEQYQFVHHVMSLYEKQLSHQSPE
Chain of Tyrosine-protein phosphatase non-receptor type 11 (Q06124 whole entry): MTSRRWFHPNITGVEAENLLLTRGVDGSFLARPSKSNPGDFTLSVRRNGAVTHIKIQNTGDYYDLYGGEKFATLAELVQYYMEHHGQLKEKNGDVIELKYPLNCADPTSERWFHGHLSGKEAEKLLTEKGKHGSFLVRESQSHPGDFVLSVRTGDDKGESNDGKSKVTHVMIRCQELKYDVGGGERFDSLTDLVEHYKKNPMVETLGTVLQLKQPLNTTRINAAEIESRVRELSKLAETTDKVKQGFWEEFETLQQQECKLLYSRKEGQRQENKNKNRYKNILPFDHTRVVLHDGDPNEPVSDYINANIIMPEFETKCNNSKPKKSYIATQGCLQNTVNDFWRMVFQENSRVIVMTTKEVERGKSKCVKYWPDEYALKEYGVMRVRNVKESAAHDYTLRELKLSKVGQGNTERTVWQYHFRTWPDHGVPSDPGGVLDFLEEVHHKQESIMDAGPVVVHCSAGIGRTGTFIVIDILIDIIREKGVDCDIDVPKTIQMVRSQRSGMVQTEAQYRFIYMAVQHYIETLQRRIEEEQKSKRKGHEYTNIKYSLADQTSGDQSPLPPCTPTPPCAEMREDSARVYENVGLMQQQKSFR
Chain of Dual specificity protein phosphatase 3 (P51452 whole entry, the tested form may be a part): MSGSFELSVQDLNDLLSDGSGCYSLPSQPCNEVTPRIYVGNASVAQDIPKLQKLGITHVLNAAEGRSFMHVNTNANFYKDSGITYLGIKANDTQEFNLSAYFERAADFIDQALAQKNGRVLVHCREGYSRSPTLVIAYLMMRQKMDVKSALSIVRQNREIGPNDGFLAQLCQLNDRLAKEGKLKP

In the case of `NC(=NOC(=O)c1cccc2ccccc12)c1cccc([N+](=O)[O-])c1`, the IC50 [1] was 5.9 µM (active), the IC50 [2] was 29.7 µM (inactive) and the IC50 [3] was 5.16 µM (active). The IC50 [4] was 20.9 µM (inactive).

For `CN(C)c1ccc(/C=C/c2ccc3ccccc3[n+]2C)cc1`, the EC50 [5] was > 150 µM (inactive), the IC50 [6] was 88.4 µM (active) and the EC50 [7] was 6.7 µM (active). For the same compound, the EC50 [8] was > 150 µM (not active), the EC50 [9] was 35 nM (active) and the EC50 [10] was < 100 nM (active). The EC50 [11] was 18.5 µM (active), the EC50 [12] was 11.5 µM (active) and the IC50 [13] was 14.3 µM (active). For the same compound, the IC50 [14] was 19.2 µM (inactive), the CC50 [15] was 28.9 µM (active) and the IC50 [16] was 46.8 µM (active). For the same compound, the EC50 [17] was < 4 nM (active).

With `C[C@@H]1CN([C@H](C)CO)C(=O)c2cccc(NC(=O)c3ccncc3)c2O[C@H]1CN(C)Cc1ccc(-c2ccccc2)cc1` the AC50 [18] was 42 µM (inactive).
